Data reported in patent US10358454B2, “Marinopyrrole derivatives and methods of making and using same” (H. LEE MOFFITT CANCER CENTER AND RESEARCH INSTITUTE, INC., priority 2014, dated 2019).
“Also recorded” adds a separate entry of the source. Where two headings read alike, the source gives them in different places.

Legend:
Bcl-xL/Bim = Bcl-xL/Bim (Homo sapiens, UniProt Q07817); assay: Bcl-xL/Bim ELISA (GST-Bcl-xL binding to biotinylated Bim BH3 peptide)
Procedure: (§1) ELISAs were performed using a modified version of a previously described procedure (Doi K et al. J. Biol. Chem. 2012, 287, 10224-10235). Briefly, 40 nM of biotinylated Bim BH3 peptide (Biomatik) in SuperBlock blocking buffer (Pierce) was incubated in high-binding capacity streptavidin-coated plates (Pierce) for 2 h. Compounds were diluted in 120 μl of PBS containing 10 nM of GST-Mcl-1 or GST-Bcl-xL in 1.5 mL tubes for 15 min. Wells were washed with wash buffer (PBS containing 0.05% Tween-20) and then 100 μL of the compound/GST-protein mixture was transferred to the wells. The plates were incubated for 2 h, and then the wells were washed with wash buffer. HRP-conjugated anti-GST antibody (Bethyl Laboratories) was diluted 1:2000 in SuperBlock and 100 μL was transferred to each well. The plate was incubated for 1 h, and then the wells were washed with wash buffer followed by PBS. 100 μL of SureBlue TMB Microwell Peroxidase Substrate (VWR) was added to each well and plates were developed for 5-10 min. 100 μL of 1 N HCl was added to each well to stop the reaction and absorbance was read at 450 nm using a μQuant plate reader (Bio-Tek).
(§2) ELISAs were performed using a similar procedure as previously described (Doi K, et al. J. Biol. Chem. 2012, 287, 10224-10235). Briefly, 40 nM of biotinylated Bim BH3 peptide (Biomatik) in SuperBlock blocking buffer (Pierce) was incubated in high-binding capacity streptavidin-coated plates (Pierce) for 2 h. Compounds were diluted in 120 μl of PBS containing 10 nM of GST-Mcl-1 or GST-Bcl-xL in 1.5 mL tubes for 15 min. Wells were washed with wash buffer (PBS containing 0.05% Tween-20) and then 100 μL of the compound/GST-protein mixture was transferred to the wells. The plates were incubated for 2 h, and then wells were washed with wash buffer. HRP-conjugated anti-GST antibody (Bethyl Laboratories) was diluted 1:2000 in SuperBlock and 100 μL was transferred to each well. The plate was incubated for 1 h, and then wells were washed with wash buffer followed by PBS. 100 μL of SureBlue TMB Microwell Peroxidase Substrate (VWR) was added to each well and plates were developed for 5-10 min. 100 μL of 1 N HCl was added to each well to stop the reaction and absorbance was read at 450 nm using μQuant plate reader (Bio-Tek).

Mcl-1/Bim = Mcl-1/Bim (Homo sapiens, UniProt Q07820); assay: Mcl-1/Bim ELISA (GST-Mcl-1 binding to biotinylated Bim BH3 peptide); settings: for selectivity for Mcl-1 over Bcl-xL (Mcl-1/Bim over Bcl-xL/Bim): ratio of ELISA IC50 values; for selectivity profile Mcl-1 vs Bcl-xL in words: from Mcl-1/Bim and Bcl-xL/Bim ELISA
Mcl-1/Bim, sequence (Q07820 whole entry): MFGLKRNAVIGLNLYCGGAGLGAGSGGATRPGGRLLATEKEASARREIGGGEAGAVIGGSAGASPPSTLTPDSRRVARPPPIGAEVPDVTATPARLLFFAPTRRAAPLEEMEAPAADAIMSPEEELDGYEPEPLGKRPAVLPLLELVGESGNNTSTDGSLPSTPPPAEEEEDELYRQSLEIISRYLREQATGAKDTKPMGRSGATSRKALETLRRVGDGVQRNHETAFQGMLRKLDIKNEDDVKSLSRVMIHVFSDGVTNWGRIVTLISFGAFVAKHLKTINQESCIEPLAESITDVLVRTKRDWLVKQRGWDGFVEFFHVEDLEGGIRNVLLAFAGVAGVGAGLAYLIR
Procedure: as §1, §2

[1] = system: human breast cancer MDA-MB-468 cells; assay: Western blotting of MDA-MB-468 cells treated with marinopyrrole derivatives (Mcl-1, Bim, caspase 3); assay type: cell-based; settings: 10 μM for 16 h
Procedure: The cells were then processed for western blotting according to a previously described methods (Balasis M E et al. Clin. Cancer Res. 2011, 17, 2852-2862). […] However, none of the cyclic marinopyrroles were active in intact cells.
as §1

Solubility = settings: aqueous solubility
[2] = system: cultured human cancer cells; assay: Induction of apoptosis in cultured human cancer cells; assay type: cell-based; settings: intact cell studies
[3] = Table 3-A structure I, Bcl-xL at 10 nM, n ≥ 3, read-out: Bcl-xL-Bim IC50 (average ± SEM)
[4] = Table 3-A structure I, Mcl-1 at 10 nM, n ≥ 3, read-out: Mcl-1-Bim IC50 (average ± SEM)
[5] = read-out: IC50 to inhibit Bcl-xL/Bim binding
[6] = Table 2-B, n ≥ 3, read-out: Mcl-1/Bim IC50 (average ± SEM)
[7] = read-out: IC50 to inhibit the binding of Mcl-1 to Bim
[8] = Table 2-B, n ≥ 3 unless specified, read-out: Bcl-xL/Bim IC50 (average ± SEM)
[9] = Table 2-A, n ≥ 3, read-out: Bcl-xL/Bim IC50 (average ± SEM)
[10] = Table 3-B structure II, n ≥ 3, read-out: Bcl-xL-Bim IC50 (average ± SEM)
[11] = Table 2-A, n ≥ 3, read-out: Mcl-1/Bim IC50 (average ± SEM)
[12] = Table 3-B structure II, n ≥ 3, read-out: Mcl-1-Bim IC50 (average ± SEM)

Bcl-xL/Bim, sequence (Q07817 whole entry): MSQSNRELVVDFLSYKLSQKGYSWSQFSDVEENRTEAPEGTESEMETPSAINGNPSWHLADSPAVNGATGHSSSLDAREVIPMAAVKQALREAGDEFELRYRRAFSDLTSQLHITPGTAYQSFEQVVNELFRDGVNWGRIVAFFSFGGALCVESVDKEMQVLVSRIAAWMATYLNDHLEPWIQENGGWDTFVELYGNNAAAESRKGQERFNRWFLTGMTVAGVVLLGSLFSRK

In the case of `O=C(O)c1ccc(C(=O)c2[nH]c(Cl)c(Cl)c2-n2c(C(=O)c3ccc(C(=O)O)cc3O)cc(Cl)c2Cl)c(O)c1` [Compound I-18, 4,4′-(4,4′,5,5′-Tetrachloro-1′H-[1,3′-bipyrrole]-2,2′-dicarbonyl)bis(3-hydroxybenzoic acid)], the IC50 (Bcl-xL/Bim; [3]) is reported as greater than 100 µM, the “activity against Bcl-xL/Bim in words” value (Bcl-xL/Bim; listed as 7a) is reported as “little activity; also recorded: less active” and the IC50 (Mcl-1/Bim; [4]) is reported as 61.4 ± 7.6 µM. The “activity against Mcl-1/Bim in words” value (Mcl-1/Bim; listed as 7a) was “lower activity than 1; also recorded: less active”, the “effect on levels of Mcl-1 and Bim and cleavage of caspase 3” value (shortened to “effect on levels”) [1] was “did not decrease Mcl-1 and Bim, and resulted in little caspase 3 cleavage” and the solubility in words (Solubility) was “improvement in aqueous solubility”.
With `Cn1c(Cl)c(Cl)c(-n2c(C(=O)c3ccccc3O)cc(Cl)c2Cl)c1C(=O)c1ccccc1O` [VI-12] the “selectivity for Bcl-xL over Mcl-1” value (Bcl-xL/Bim; ratio of ELISA IC50 values) was 12.7 fold, the IC50 (Bcl-xL/Bim; [5]) was 7.1 µM and the IC50 (Mcl-1/Bim; [6]) was greater than 100 µM. The IC50 (Mcl-1/Bim; Table 3-E structure VI, n ≥ 3, read-out: Mcl-1-Bim IC50 (average ± SEM)) was greater than 100 µM, the IC50 (Mcl-1/Bim; [7]) was greater than 100 µM and the induction of apoptosis [2] was “induced apoptosis”.
In the case of `COC(=O)c1ccc(C(=O)c2[nH]c(Cl)c(Cl)c2-n2c(C(=O)c3ccc(C(=O)OC)cc3O)cc(Cl)c2Cl)c(O)c1` [Compound I-17, Dimethyl-4,4′-(4,4′,5,5′-tetrachloro-1′H-[1,3′-bipyrrole]-2,2′-dicarbonyl)bis(3-hydroxybenzoate)], the IC50 (Bcl-xL/Bim; [3]) is reported as greater than 100 µM, the IC50 (Bcl-xL/Bim; [5]) is reported as greater than 100 µM and the “activity against Mcl-1/Bim in words” value (Mcl-1/Bim) is reported as “showed activity”. The IC50 (Mcl-1/Bim; [4]) was 16.9 ± 2.3 µM and the “effect on levels” value [1] was “significant decrease in the levels of Mcl-1 and Bim, and cleavage of caspase 3”.
With `COc1ccccc1C(=O)c1c(-n2c(C(=O)c3ccccc3OC)cc(Cl)c2Cl)c(Cl)c(Cl)n1C` [VI-11] the “selectivity for Mcl-1 over Bcl-xL (Mcl-1/Bim over Bcl-xL/Bim)” value (“selectivity for Mcl-1 over Bcl-xL” below) (Mcl-1/Bim) was 4.2 fold and the induction of apoptosis [2] was “induced apoptosis”.
Work on `CCOP(=O)(OCC)c1ccc(C(=O)c2[nH]c(Cl)c(Cl)c2-n2c(C(=O)c3ccc(P(=O)(OCC)OCC)cc3O)cc(Cl)c2Cl)c(O)c1` [Compound I-19, tetraethyl((4,4′,5,5′-tetrachloro-1′H-[1,3′-bipyrrole]-2,2′-dicarbonyl)bis(3-hydroxy-4,1-phenylene))bis(phosphonate)] yielded an IC50 (Bcl-xL/Bim; [3]) greater than 100 µM, an IC50 (Bcl-xL/Bim; [5]) greater than 100 µM and an IC50 (Mcl-1/Bim; read-out: Mcl-1-Bim IC50 (average ± SEM)) of 7.7 ± 2.2 µM. The “effect on levels” value [1] was “little effect on Mcl-1, Bim or caspase 3”.
In the case of `O=C(c1ccccc1O)c1[nH]c(Cl)c(Cl)c1-n1c(C(=O)c2ccccc2O)cc(Cl)c1Cl` (single isomer, unassigned) [(−)-1, reference compound], the “effect on levels” value [1] is reported as “able to decrease Mcl-1 and Bim and to cleave caspas 3”.
With `O=C(c1ccc(S(=O)(=O)Cc2ccccc2)cc1O)c1[nH]c(Cl)c(Cl)c1-n1c(C(=O)c2ccc(S(=O)(=O)Cc3ccccc3)cc2O)cc(Cl)c1Cl` [Compound 1-13, (4,4′,5,5′-Tetrachloro-1′H-1,3′-bipyrrole-2,2′-diyl)bis(((2-hydroxy-4-benzylsulfonyl)phenyl)methanone)] the IC50 (Bcl-xL/Bim; [3]) was 69.3 ± 5.8 µM, the “fold loss of potency against Mcl-1/Bim” value (Mcl-1/Bim; 1-15 and 1-13 vs 1-10, 1-14 vs 1-11, 1-16 vs 1-15, 1-12 vs 1-9, 1-22, 1-21, 1-20 vs 1-23, 1-37 and N-Me methoxy analogue vs (±)-1) was 16 fold and the IC50 (Mcl-1/Bim; [6]) was 11.2 ± 4 µM. It also gave an IC50 (Mcl-1/Bim; [4]) of 7.3 ± 1.4 µM.
With `O=C1c2ccc(O)cc2Oc2c(Cl)cc(C(=O)c3ccc(O)cc3O)n2-c2c1[nH]c(Cl)c2Cl` [IV-2, 2,3,7-Trichloro-5-(2,4-dihydroxybenzoyl)-10-hydroxybenzo[g]dipyrrolo[2,1-b:3′,2′-d][1,3]oxazo-cin-13(1H)-one] the IC50 (Bcl-xL/Bim; Table 1, Bcl-xL at 10 nM, n ≥ 3, read-out: Bcl-xL-Bim IC50 (average ± SEM)) was greater than 100 µM, the IC50 (Bcl-xL/Bim; [8]) was 9.5 ± 2.2 µM and the IC50 (Bcl-xL/Bim; Table 3-C structure IV, n ≥ 3 (IV-1: n = 2), read-out: Bcl-xL-Bim IC50 (average ± SEM)) was 9.5 ± 2.2 µM. The IC50 (Mcl-1/Bim; Table 1, Mcl-1 at 10 nM, n ≥ 3, read-out: Mcl-1-Bim IC50 (average ± SEM)) was 42.5 ± 6 µM, the IC50 (Mcl-1/Bim; [6]) was 8 ± 1.6 µM and the IC50 (Mcl-1/Bim; Table 3-C structure IV, n ≥ 3, read-out: Mcl-1-Bim IC50 (average ± SEM)) was 8 ± 1.6 µM. For the same compound, the “selectivity profile Mcl-1 vs Bcl-xL in words” value (Mcl-1/Bim) was “dual Mcl-1 and BclxL antagonists”.
For `CCOC(=O)Cn1cc(-c2cc(O)c(C(=O)c3[nH]c(Cl)c(Cl)c3-n3c(C(=O)c4cc(Cl)c(-c5cn(CC(=O)OCC)nn5)cc4O)cc(Cl)c3Cl)cc2Cl)nn1` [Compound 1-17, Diethyl 2,2′-(4,4′-((4,4′,5,5′-tetrachloro-1′H-1,3′-bipyrrole-2,2′-dicarbonyl)bis(2-chloro-5-hydroxy-4,1-phenylene))bis(1H-1,2,3-triazole-4,1-diyl))diacetate], the “activity against Bcl-xL/Bim in words” value (Bcl-xL/Bim) was “not active”, the IC50 (Bcl-xL/Bim; [9]) was greater than 100 µM and the IC50 (Bcl-xL/Bim; [10]) was greater than 100 µM. For the same compound, the IC50 (Mcl-1/Bim; [11]) was 7.8 ± 1.5 µM, the IC50 (Mcl-1/Bim; [12]) was 7.8 ± 1.5 µM and the “selectivity for Mcl-1 over Bcl-xL” value (Mcl-1/Bim) was 12.9 fold. It also gave an IC50 (Mcl-1/Bim; [7]) of 7.8 µM.
With `CCc1ccc(C(=O)c2[nH]c(Cl)c(Cl)c2-n2c(C(=O)c3ccc(CC)cc3O)cc(Cl)c2Cl)c(O)c1` [Compound 1-5, (4,4′,5,5′-Tetrachloro-1′H-1,3′-bipyrrole-2,2′-diyl)bis((4-ethyl-2-hydroxyphenyl)methanone)] the IC50 (Bcl-xL/Bim; [8]) was 3.9 ± 1.2 µM, the IC50 (Bcl-xL/Bim; [3]) was 3.9 ± 1.3 µM and the IC50 (Mcl-1/Bim; [6]) was 2.1 ± 0.5 µM. For the same compound, the IC50 (Mcl-1/Bim; [4]) was 2.1 ± 0.5 µM, the “selectivity profile Mcl-1 vs Bcl-xL in words” value (Mcl-1/Bim) was “dual Mcl-1 and Bcl-XL antagonists” and the IC50 (Mcl-1/Bim; [7]) was 2.1 µM. The induction of apoptosis [2] was “induced apoptosis”.
`O=C(c1ccc(OS(=O)(=O)C(F)(F)F)cc1O)c1[nH]c(Cl)c(Cl)c1-n1c(C(=O)c2ccc(OS(=O)(=O)C(F)(F)F)cc2O)cc(Cl)c1Cl` [Compound 1-6, (4,4′,5,5′-tetrachloro-1′H-1,3′-bipyrrole-2,2′-diyl)bis(((2-hydroxy-4-hydroxytrifluoromethanesulfonate)-phenyl)methanone)] gave an IC50 (Bcl-xL/Bim; [8]) of 2.5 ± 0.7 µM, an IC50 (Bcl-xL/Bim; [3]) of 2.1 ± 0.7 µM and an IC50 (Mcl-1/Bim; [6]) of 1 ± 0.3 µM. It also gave an IC50 (Mcl-1/Bim; [4]) of 1 ± 0.3 µM and an IC50 (Mcl-1/Bim; [7]) of 1 µM.
In the case of `O=C(O)Cn1cc(-c2ccc(C(=O)c3[nH]c(Cl)c(Cl)c3-n3c(C(=O)c4ccc(-c5cn(CC(=O)O)nn5)cc4O)cc(Cl)c3Cl)c(O)c2)nn1` [Compound 1-26, 2,2′-(4,4′-((4,4′,5,5′-Tetrachloro-1′H-1,3′-bipyrrole-2,2′-dicarbonyl)bis(3-hydroxy-4,1-phenylene))bis(1H-1,2,3-triazole-4,1-diyl))diacetic acid], the “activity against Bcl-xL/Bim in words” value (Bcl-xL/Bim) is reported as “not tolerated; also recorded: not active”, the IC50 (Bcl-xL/Bim; [9]) is reported as greater than 50 µM and the IC50 (Bcl-xL/Bim; [10]) is reported as greater than 50 µM. For the same compound, the IC50 (Mcl-1/Bim; [11]) was 16.5 ± 1.9 µM, the IC50 (Mcl-1/Bim; [12]) was 16.5 ± 1.9 µM and the “selectivity for Mcl-1 over Bcl-xL” value (Mcl-1/Bim) was 3.0 fold. It also gave an IC50 (Mcl-1/Bim; [7]) of 16.5 µM.
In the case of `C=Cc1ccc(C(=O)c2[nH]c(Cl)c(Cl)c2-n2c(C(=O)c3ccc(C=C)cc3O)cc(Cl)c2Cl)c(O)c1` [Compound 1-4, (4,4′,5,5′-Tetrachloro-1′H-1,3′-bipyrrole-2,2′-diyl)bis((2-hydroxy-4-vinylphenyl)methanone)], the “selectivity profile Mcl-1 vs Bcl-xL in words” value (Mcl-1/Bim) is reported as “dual Mcl-1 and Bcl-XL antagonists” and the induction of apoptosis [2] is reported as “induced apoptosis”.
